Test results: article PMC11407620, “Repurposing auranofin and meclofenamic acid as energy-metabolism inhibitors and anti-cancer drugs” (PLOS ONE, 2024)

Tests used:
[1] = test system: HeLa, MDA-MB-231 and MDA-MB-468 cells; assay: Energy metabolism pathway fluxes in intact cancer cells, pooled; type: cell-based, human; settings: HeLa and MDA-MB-231 cells; Aur at IC50; 24 h
Experimental: For glycolysis flux, cells (3 mg protein/mL) were incubated in KR buffer. Glycolysis was started by adding 5 mM external glucose (Sigma-Aldrich, MO, USA), and cellular samples were withdrawn after 0 and 10 min of incubation at 37°C under smooth orbital shaking. At the indicated times, the cells were rapidly mixed with 3% (w/v) ice-cold perchloric acid and centrifuged. The supernatants were neutralized with 1N KOH/100mM Tris. To rule out lactate production by glutaminolysis, cells were also incubated with 10 mM 2-deoxyglucose (Sigma-Aldrich, MO, USA). Lactate was determined by a standard method with lactate dehydrogenase (Roche, Mannheim, Germany) following the NADH formation at 340 nm.
For oxidative phosphorylation (OxPhos) flux, cells (2–5 mg protein/mL) were incubated at 37°C in air saturated KR medium plus 5 mM glucose. […] The net OxPhos rate was determined by using a Clark type electrode, as previously described and by using a high-resolution respirometer (Oroboros Instruments, Innsbruck, Austria) at 37°C. The contribution of OxPhos and glycolysis to the cellular ATP supply was determined, respectively, from the net OxPhos rate (oligomycin-sensitive respiration) multiplied by the ATP/O or P»/O2 ratio that corresponds to 2.5 or 5, and from the rate of lactate production, assuming a stoichiometry of 1 mol of ATP produced per 1 mol of lactate produced.

[2] = test system: Rat Liver Mitochondria; assay: Oxygen consumption of isolated mitochondria; type: biochemical; settings: for Net State 3 oxygen consumption rate / Pseudo State 4 oxygen consumption rate / RC, respiratory control / State 3 oxygen consumption rate / State 4 oxygen consumption rate / RC: Rat Liver Mitochondria
Experimental: Rat liver (RLM) and heart (RHM) mitochondria were isolated as described previously by differential centrifugation.
(§1) Respiration of AS-30D, liver and heart mitochondria (1 mg protein/mL) was assayed oxygraphically with a Clark-type O2 electrode in KME (120 mM KCl, 20 mM Mops, 1 mM EGTA) buffer pH 7.2 plus 2 mM KH2PO4, and different oxidizable substrates (as indicated in Results). For state 3 respiration, 600 nmol ADP were added. Mitochondria were incubated at 37°C with Aur and MA for 30–60 s before substrates were added. At the end of each respiratory measurement, dithionite was added to get the chemical zero oxygen signal.
(§2) Isolated mitochondria (1mg protein/mL) were incubated in KME buffer (120 mM KCl, 20 mM MOPS, 1 mM EGTA) pH 7.20 plus 2 mM KH2PO4 and the indicated oxidizable substrates. For state 3 (ADP-stimulated) respiration, 300-600 nmol ADP were added. RC, respiratory control; n=3. To get the maximal reduction of molecular oxygen (zero oxygen concentration), sodium dithionite (Na2O4S2) was added at the end of each measurement.

[3] = test system: AS-30D hepatoma mitochondria; assay: Oxygen consumption of isolated mitochondria; type: biochemical, rat; design: Net State 3 oxygen consumption rate: unit not given here; settings: for Net State 3 (State 3 –pseudoState 4) oxygen consumption rate / Pseudo State 4 oxygen consumption rate / RC (State 3/ State 4), respiratory control / State 3 oxygen consumption rate / State 4 oxygen consumption rate / Net State 3 oxygen consumption rate / RC (State 3/ State 4): Hepatoma mitochondria
Experimental: AS-30D hepatocarcinoma cells were propagated in the peritoneal cavity of 200–250 g weight female Wistar rats by intra-peritoneal inoculation of 3 mL of a cellular suspension containing approximately 4 × 10^8 cells/mL [36]. After 5–6 days, the rats were sacrificed by cervical dislocation and AS-30D ascites liquid was extracted from peritoneal area with a sterile syringe and collected in 50 mL-plastic tubes. The hepatoma cells were harvested by centrifugation and washed once by centrifugation in KR buffer. For mitochondria isolation from AS-30D hepatoma, cells were permeabilized with digitonin (Sigma Aldrich, CA, USA) at 10–40 μg/mg cellular protein concentration.
as §1, §2

[4] = 5 mM Glutamate/5 mM Malate, 10 μM Aur
[5] = 5 mM Glutamate/5 mM Malate, 25 μM Aur
[6] = 5 mM Glutamate/5 mM Malate, 50 μM Aur
[7] = 5 mM Glutamate/5 mM Malate, 100 μM Aur
[8] = Succinate 0.5 mM + Rotenone 2 µM, 10 µM Aur
[9] = Succinate 0.5 mM + Rotenone 2 µM, 25 µM Aur
[10] = Succinate 0.5 mM + Rotenone 2 µM, 50 µM Aur
[11] = Succinate 0.5 mM + Rotenone 2 µM, 100 µM Aur
[12] = 5 mM Glutamate/0.1 mM Malate, 10 μM Aur
[13] = 5 mM Glutamate/0.1 mM Malate, 25 μM Aur
[14] = 5 mM Glutamate/0.1 mM Malate, 50 μM Aur
[15] = 5 mM Glutamate/0.1 mM Malate, 100 μM Aur

For `CC(=O)OC[C@H]1O[C@@H]([S-])[C@H](OC(C)=O)[C@@H](OC(C)=O)[C@@H]1OC(C)=O.CCP(CC)CC.[Au+]` [Aur, [1-(thio-κS)-β-D-glucopyranose-2,3,4,6-tetraacetyl] (triethylphosphine)-gold], the “inhibition of OxPhos and glycolysis fluxes” value [1] was 48–75%, the “inhibition of state 3 respiration rates” value ([2]; RLM) was 20–54% and the “increase of state 4 respiration rates (times)” value ([2]; RLM, GM) was 1.8–1.9 times. The “Net State 3 oxygen consumption rate” value [2, 4] was 123.5 ± 59 nmol O2 min^-1 mg protein^-1, the “Pseudo State 4 oxygen consumption rate” value [2, 4] was 27.5 ± 3 nmol O2 min^-1 mg protein^-1 and the “RC, respiratory control” value [2, 4] was 8 ± 1. For the same compound, the “State 3 oxygen consumption rate” value [2, 4] was 151 ± 61.5 nmol O2 min^-1 mg protein^-1, the “State 4 oxygen consumption rate” value [2, 4] was 18 ± 5 nmol O2 min^-1 mg protein^-1 and the “Net State 3 oxygen consumption rate” value [2, 5] was 62 nmol O2 min^-1 mg protein^-1. The “Pseudo State 4 oxygen consumption rate” value [2, 5] was 27 (2) nmol O2 min^-1 mg protein^-1, the “RC, respiratory control” value [2, 5] was 6 (2) and the “State 3 oxygen consumption rate” value [2, 5] was 89 (2) nmol O2 min^-1 mg protein^-1. For the same compound, the “State 4 oxygen consumption rate” value [2, 5] was 15 (2) nmol O2 min^-1 mg protein^-1, the “Net State 3 oxygen consumption rate” value [2, 6] was 48 nmol O2 min^-1 mg protein^-1 and the “Pseudo State 4 oxygen consumption rate” value [2, 6] was 30.5 (2) nmol O2 min^-1 mg protein^-1. The “RC, respiratory control” value [2, 6] was 5.5 (2), the “State 3 oxygen consumption rate” value [2, 6] was 78.5 (2) nmol O2 min^-1 mg protein^-1 and the “State 4 oxygen consumption rate” value [2, 6] was 16 (2) nmol O2 min^-1 mg protein^-1. For the same compound, the “Net State 3 oxygen consumption rate” value [2, 7] was 25 nmol O2 min^-1 mg protein^-1, the “Pseudo State 4 oxygen consumption rate” value [2, 7] was 48 (2) nmol O2 min^-1 mg protein^-1 and the “RC, respiratory control” value [2, 7] was 3 (2). The “State 3 oxygen consumption rate” value [2, 7] was 73 (2) nmol O2 min^-1 mg protein^-1, the “State 4 oxygen consumption rate” value [2, 7] was 26 (2) nmol O2 min^-1 mg protein^-1 and the “Net State 3 oxygen consumption rate” value [2, 8] was 116 (2). The “Pseudo State 4 oxygen consumption rate” value [2, 8] was 33 (2), the RC [2, 8] was 5.4 (2) and the “State 3 oxygen consumption rate” value [2, 8] was 150 (2). For the same compound, the “State 4 oxygen consumption rate” value [2, 8] was 68 (2), the “Net State 3 oxygen consumption rate” value [2, 9] was 88 (2) and the “Pseudo State 4 oxygen consumption rate” value [2, 9] was 73 (2). The RC [2, 9] was 4.8 (2), the “State 3 oxygen consumption rate” value [2, 9] was 161 (2) and the “State 4 oxygen consumption rate” value [2, 9] was 39.5 (2). For the same compound, the “Net State 3 oxygen consumption rate” value [2, 10] was 36.5 (2), the “Pseudo State 4 oxygen consumption rate” value [2, 10] was 63.5 (2) and the RC [2, 10] was 2.3 (2). The “State 3 oxygen consumption rate” value [2, 10] was 95.5 (2), the “State 4 oxygen consumption rate” value [2, 10] was 40.5 (2) and the “Net State 3 oxygen consumption rate” value [2, 11] was 20 (2). For the same compound, the “Pseudo State 4 oxygen consumption rate” value [2, 11] was 59 (2), the RC [2, 11] was 2.5 (2) and the “State 3 oxygen consumption rate” value [2, 11] was 64 (2). The “State 4 oxygen consumption rate” value [2, 11] was 56 (2), the “Net State 3 (State 3 –pseudoState 4) oxygen consumption rate” value [3, 12] was 91.5 ± 8 nmol O2 min^-1 mg protein^-1 and the “Pseudo State 4 oxygen consumption rate” value [3, 12] was 33.5 ± 2 nmol O2 min^-1 mg protein^-1. The “RC (State 3/ State 4), respiratory control” value [3, 12] was 2.8 ± 0.5, the “State 3 oxygen consumption rate” value [3, 12] was 125 ± 9 nmol O2 min^-1 mg protein^-1 and the “State 4 oxygen consumption rate” value [3, 12] was 44 ± 6 nmol O2 min^-1 mg protein^-1. For the same compound, the “Net State 3 (State 3 –pseudoState 4) oxygen consumption rate” value [3, 13] was 78 ± 29 nmol O2 min^-1 mg protein^-1, the “Pseudo State 4 oxygen consumption rate” value [3, 13] was 37 ± 5 nmol O2 min^-1 mg protein^-1 and the “RC (State 3/ State 4), respiratory control” value [3, 13] was 2.6 ± 0.5. For the same compound, the “State 3 oxygen consumption rate” value [3, 13] was 114± 31 nmol O2 min^-1 mg protein^-1, the “State 4 oxygen consumption rate” value [3, 13] was 43 ± 3 nmol O2 min^-1 mg protein^-1 and the “Net State 3 (State 3 –pseudoState 4) oxygen consumption rate” value [3, 14] was 80 ± 39 nmol O2 min^-1 mg protein^-1. For the same compound, the “Pseudo State 4 oxygen consumption rate” value [3, 14] was 52.5 ± 11 nmol O2 min^-1 mg protein^-1, the “RC (State 3/ State 4), respiratory control” value [3, 14] was 2.2 ± 0.5 and the “State 3 oxygen consumption rate” value [3, 14] was 133± 46 nmol O2 min^-1 mg protein^-1. The “State 4 oxygen consumption rate” value [3, 14] was 74 ± 28 nmol O2 min^-1 mg protein^-1, the “Net State 3 (State 3 –pseudoState 4) oxygen consumption rate” value [3, 15] was 68 ± 41 nmol O2 min^-1 mg protein^-1 and the “Pseudo State 4 oxygen consumption rate” value [3, 15] was 67 ± 21.5 nmol O2 min^-1 mg protein^-1. For the same compound, the “RC (State 3/ State 4), respiratory control” value [3, 15] was 1.5 ± 0.4, the “State 3 oxygen consumption rate” value [3, 15] was 125 ± 61 nmol O2 min^-1 mg protein^-1 and the “State 4 oxygen consumption rate” value [3, 15] was 79 ± 30 nmol O2 min^-1 mg protein^-1. The “Net State 3 oxygen consumption rate” value [3, 8] was 63 ± 13, the “Pseudo State 4 oxygen consumption rate” value [3, 8] was 80 ± 10 and the “RC (State 3/ State 4)” value [3, 8] was 1.9 ± 0.5. The “State 3 oxygen consumption rate” value [3, 8] was 143 ± 18, the “State 4 oxygen consumption rate” value [3, 8] was 73 ± 7.5 and the “Net State 3 oxygen consumption rate” value [3, 9] was 56.5 ± 21. The “Pseudo State 4 oxygen consumption rate” value [3, 9] was 90 ± 31, the “RC (State 3/ State 4)” value [3, 9] was 1.7 ± 0.1 and the “State 3 oxygen consumption rate” value [3, 9] was 147± 23. The “State 4 oxygen consumption rate” value [3, 9] was 84 ± 15, the “Net State 3 oxygen consumption rate” value [3, 10] was 58.3 ± 63 and the “Pseudo State 4 oxygen consumption rate” value [3, 10] was 83 ± 23. The “RC (State 3/ State 4)” value [3, 10] was 1.9 ± 0.3, the “State 3 oxygen consumption rate” value [3, 10] was 141.5± 65 and the “State 4 oxygen consumption rate” value [3, 10] was 70 ± 28. The “Net State 3 oxygen consumption rate” value [3, 11] was 26 ± 46, the “Pseudo State 4 oxygen consumption rate” value [3, 11] was 82 ± 34 and the “RC (State 3/ State 4)” value [3, 11] was 1.8 ± 0.4. The “State 3 oxygen consumption rate” value [3, 11] was 104 ± 24, the “State 4 oxygen consumption rate” value [3, 11] was 56.5 ± 7 and the “increase of state 4 respiration rates (times)” value ([3]; hepatoma mitochondria, GM) was 2.3–2.4 times.
